Experimental data published in ChEMBL document CHEMBL3400090, “Benzofused hydroxamic acids: useful fragments for the preparation of histone deacetylase inhibitors. Part 2: 7-fluorobenzothiophenes and benzofurans” (Bioorg Med Chem Lett, 2015).

Columns and labels:
[1] = Antiproliferative activity against human HCT116 cells after 5 days by Alamar Blue assay; format: functional, cell-based; conditions: HCT-116, 120 h
[2] = target: T1, Histone deacetylase (Rattus norvegicus) (UniProt Q6P6W3+Q99P99+Q99P96+Q4QQW4+Q99P97+Q5RJZ2+B1WBY8); conditions: at 0.1 µM
Description: Inhibition of isolated rat liver HDAC using substrate containing acetylated lysine side chain assessed as release of fluorophore at 0.1 uM by Fluor de Lys assay

[3] = target: T1, Histone deacetylase (Rattus norvegicus); conditions: at 0.01 µM
Description: Inhibition of isolated rat liver HDAC using substrate containing acetylated lysine side chain assessed as release of fluorophore at 0.01 uM by Fluor de Lys assay

SMILES	inhibition [2]	inhibition [3]	IC50 [1]
CN(C)c1ccc(C(=O)NCc2ccc3cc(C(=O)NO)sc3c2F)cc1	61%	< 20%	60 nM
Cc1ncoc1C(=O)NCc1ccc2cc(C(=O)NO)sc2c1F	61%	20%	210 nM
O=C(Cc1ccccc1)Nc1ccc2oc(C(=O)NO)cc2c1	41%	< 20%	1700 nM
COc1ccc(C(=O)NCc2ccc3cc(C(=O)NO)sc3c2F)cc1	78%	39%	50 nM
O=C(NCc1ccc2oc(C(=O)NO)cc2c1)c1ccccc1	49%	< 20%	690 nM
O=C(NCc1ccc2cc(C(=O)NO)sc2c1F)c1ccco1	78%	39%	90 nM
COCc1ccc(C(=O)NCc2ccc3cc(C(=O)NO)sc3c2F)o1	67%	23%	310 nM
O=C(NCc1ccc2cc(C(=O)NO)oc2c1)c1ccco1	27%	< 20%	
Cc1cc(C(=O)NCc2ccc3cc(C(=O)NO)sc3c2F)oc1C	59%	21%	470 nM
COc1ccc(CC(=O)Nc2ccc3oc(C(=O)NO)cc3c2)cc1	42%	< 20%	2700 nM
Cc1ccc(C(=O)NCc2ccc3cc(C(=O)NO)sc3c2F)s1	80%	41%	120 nM
COc1ccccc1C(=O)NCc1ccc2cc(C(=O)NO)sc2c1F	56%	< 20%	1200 nM

The next lines start with results.

inhibition [2]	inhibition [3]	SMILES	IC50 [1]
45%	< 20%	O=C(NCc1ccc2oc(C(=O)NO)cc2c1)c1ccco1	860 nM
45%	< 20%	O=C(NO)c1cc2ccc(CN3CCc4ccccc4C3)c(F)c2s1	3000 nM
48%	< 20%	O=C(NO)c1cc2ccc(CN(CCO)Cc3ccccc3)c(F)c2s1	800 nM
64%	24%	O=C(NCc1ccc2cc(C(=O)NO)sc2c1F)c1ccccc1	980 nM
32%	< 20%	COc1cccc(CC(=O)Nc2ccc3oc(C(=O)NO)cc3c2)c1	
34%	< 20%	CN(C)c1ccc(CC(=O)Nc2ccc3oc(C(=O)NO)cc3c2)cc1	
26%	< 20%	CN(C)CCCC(=O)Nc1ccc2oc(C(=O)NO)cc2c1	
76%	45%	O=C(NCc1ccc2cc(C(=O)NO)sc2c1F)c1ccc[nH]1	300 nM
